Assay results reported in ChEMBL document CHEMBL1149283, “Design, synthesis and evaluation of a PLG tripeptidomimetic based on a pyridine scaffold” (J Med Chem, 2004).
Where a SMILES comes first, the peptide text is derived from it.

Legend:
Format in all cases: functional, cell-based
Conditions in all cases: NIH3T3
[1] = target: D(2) dopamine receptor (Homo sapiens) (UniProt P14416); test: Activity at human dopamine D2 receptor in NIH/3T3 cells assessed as enhancement of NPA-stimulated beta-galactosidase activity at 50 nM after 5 days by R-SAT assay
[2] = target: D(2) dopamine receptor (Homo sapiens) (UniProt P14416); test: Activity at human dopamine D2 receptor in NIH/3T3 cells assessed as enhancement of NPA-stimulated beta-galactosidase activity at 100 nM after 5 days by R-SAT assay
[3] = target: D(2) dopamine receptor (Homo sapiens) (UniProt P14416); test: Activity at human dopamine D2 receptor in NIH/3T3 cells assessed as enhancement of NPA-stimulated beta-galactosidase activity at 10 nM after 5 days by R-SAT assay

Sequence of D(2) dopamine receptor (Homo sapiens) (P14416 whole entry): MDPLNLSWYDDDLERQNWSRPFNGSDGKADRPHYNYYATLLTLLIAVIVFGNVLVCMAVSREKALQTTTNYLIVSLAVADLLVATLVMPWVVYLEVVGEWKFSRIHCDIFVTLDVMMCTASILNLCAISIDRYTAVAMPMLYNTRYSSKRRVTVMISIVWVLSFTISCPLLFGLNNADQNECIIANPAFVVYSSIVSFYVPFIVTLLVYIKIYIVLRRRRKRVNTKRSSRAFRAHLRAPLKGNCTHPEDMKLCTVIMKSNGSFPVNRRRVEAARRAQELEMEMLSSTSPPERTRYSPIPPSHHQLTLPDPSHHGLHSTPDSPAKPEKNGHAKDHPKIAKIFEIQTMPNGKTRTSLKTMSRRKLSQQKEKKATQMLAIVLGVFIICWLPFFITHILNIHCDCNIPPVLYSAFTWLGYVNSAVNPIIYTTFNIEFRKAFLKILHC

Row | Structure (SMILES) | Activity [1] | Activity [2] | Activity [3]
1 | CC(C)Cc1c(C(=O)[C@@H]2CCCN2)ccnc1OCC(N)=O | 135% | 117% | 146%
2 | CC(C)C[C@H](NC(=O)[C@@H]1CCCN1)C(=O)NCC(N)=O (H-Pro-Leu-Gly-NH2) | 104% | 98% | 115%
